Measurements: the supplement of paper PMC10307832

Assays:
Assay in all cases: relative viability (nuclei count vs DMSO), 5 days (fraction); higher = more cells survive
CAL-12T = system: CAL-12T
Method in brief: (§1)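 Lung cancer cell lines in 1536-well plates were dosed by pin tool the day after seeding, either with one drug alone or with a fixed anchor-drug dose plus five library-drug doses (not always all listed) in √10 steps. After 5 days, cells were fixed and their nuclei stained in one step (final 0.05% Triton X-100, 1% formaldehyde, 1 ug/ml Hoechst), then counted on 4× images. Relative viability is the nuclei count in treated wells divided by that in vehicle wells. Values are medians of duplicate plates.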

EKVX = system: EKVX
Method in brief: as §1

H3255 = system: H3255
Method in brief: as §1

HCC-15 = system: HCC-15
Method in brief: as §1

HCC-827 = system: HCC-827
Method in brief: as §1

LCLC-97TM1 = system: LCLC-97TM1
Method in brief: as §1

LK-2 = system: LK-2
Method in brief: as §1

NCI-H1355 = system: NCI-H1355
Method in brief: as §1

NCI-H1563 = system: NCI-H1563
Method in brief: as §1

NCI-H1734 = system: NCI-H1734
Method in brief: as §1

NCI-H1755 = system: NCI-H1755
Method in brief: as §1

NCI-H1975 = system: NCI-H1975
Method in brief: as §1

NCI-H2228 = system: NCI-H2228
Method in brief: as §1

NCI-H2405 = system: NCI-H2405
Method in brief: as §1

NCI-H322M = system: NCI-H322M
Method in brief: as §1

NCI-H520 = system: NCI-H520
Method in brief: as §1

NCI-H661 = system: NCI-H661
Method in brief: as §1

PC-14 = system: PC-14
Method in brief: as §1

PC-3 [JPC-3] = system: PC-3 [JPC-3]
Method in brief: as §1

RERF-LC-KJ = system: RERF-LC-KJ
Method in brief: as §1

O=c1cc(-c2cccc3c2Sc2ccccc2S3)oc(N2CCOCC2)c1 + C[C@]1(O)C[C@@H](c2nc(-c3ccc4ccc(-c5ccccc5)nc4c3)c3c(N)nccn32)C1 [Linsitinib] (partner 1 µM)
relative viability (CAL-12T; first compound 0.08 µM): 0.73 | relative viability (CAL-12T; first compound 0.253 µM): 0.861 | relative viability (CAL-12T; first compound 0.8 µM): 0.899 | relative viability (CAL-12T; first compound 2.53 µM): 0.77 | relative viability (CAL-12T; first compound 8 µM): 0.503 | relative viability (EKVX; first compound 0.08 µM): 1.17 | relative viability (EKVX; first compound 0.253 µM): 1.13 | relative viability (EKVX; first compound 0.8 µM): 0.818 | relative viability (EKVX; first compound 2.53 µM): 1.02 | relative viability (EKVX; first compound 8 µM): 0.935 | relative viability (H3255; first compound 0.08 µM): 1.15 | relative viability (H3255; first compound 0.253 µM): 1.03 | relative viability (H3255; first compound 0.8 µM): 1.02 | relative viability (H3255; first compound 2.53 µM): 0.865 | relative viability (H3255; first compound 8 µM): 0.983 | relative viability (HCC-15; first compound 0.08 µM): 0.958 | relative viability (HCC-15; first compound 0.253 µM): 0.93 | relative viability (HCC-15; first compound 0.8 µM): 0.904 | relative viability (HCC-15; first compound 2.53 µM): 0.844 | relative viability (HCC-15; first compound 8 µM): 0.88 | relative viability (HCC-827; first compound 0.08 µM): 0.892 | relative viability (HCC-827; first compound 0.253 µM): 0.979 | relative viability (HCC-827; first compound 0.8 µM): 0.925 | relative viability (HCC-827; first compound 2.53 µM): 0.848 | relative viability (HCC-827; first compound 8 µM): 0.915 | relative viability (LCLC-97TM1; first compound 0.08 µM): 0.18 | relative viability (LCLC-97TM1; first compound 0.253 µM): 0.194 | relative viability (LCLC-97TM1; first compound 0.8 µM): 0.203 | relative viability (LCLC-97TM1; first compound 2.53 µM): 0.188 | relative viability (LCLC-97TM1; first compound 8 µM): 0.185 | relative viability (LK-2; first compound 0.08 µM): 0.64 | relative viability (LK-2; first compound 0.253 µM): 0.527 | relative viability (LK-2; first compound 0.8 µM): 0.549 | relative viability (LK-2; first compound 2.53 µM): 0.533 | relative viability (LK-2; first compound 8 µM): 0.651 | relative viability (NCI-H1355; first compound 0.08 µM): 0.853 | relative viability (NCI-H1355; first compound 0.253 µM): 0.937 | relative viability (NCI-H1355; first compound 0.8 µM): 0.818 | relative viability (NCI-H1355; first compound 2.53 µM): 0.712 | relative viability (NCI-H1355; first compound 8 µM): 0.689 | relative viability (NCI-H1563; first compound 0.08 µM): 1.19 | relative viability (NCI-H1563; first compound 0.253 µM): 1.42 | relative viability (NCI-H1563; first compound 0.8 µM): 1.2 | relative viability (NCI-H1563; first compound 2.53 µM): 1.2 | relative viability (NCI-H1563; first compound 8 µM): 1.06 | relative viability (NCI-H1734; first compound 0.08 µM): 0.854 | relative viability (NCI-H1734; first compound 0.253 µM): 1.16 | relative viability (NCI-H1734; first compound 0.8 µM): 1 | relative viability (NCI-H1734; first compound 2.53 µM): 0.876 | relative viability (NCI-H1734; first compound 8 µM): 1.13 | relative viability (NCI-H1755; first compound 0.08 µM): 1.03 | relative viability (NCI-H1755; first compound 0.253 µM): 1.1 | relative viability (NCI-H1755; first compound 0.8 µM): 0.978 | relative viability (NCI-H1755; first compound 2.53 µM): 1.02 | relative viability (NCI-H1755; first compound 8 µM): 0.936 | relative viability (NCI-H1975; first compound 0.08 µM): 1.07 | relative viability (NCI-H1975; first compound 0.253 µM): 1.2 | relative viability (NCI-H1975; first compound 0.8 µM): 0.807 | relative viability (NCI-H1975; first compound 2.53 µM): 0.863 | relative viability (NCI-H1975; first compound 8 µM): 0.881 | relative viability (NCI-H2228; first compound 0.08 µM): 0.545 | relative viability (NCI-H2228; first compound 0.253 µM): 0.588 | relative viability (NCI-H2228; first compound 0.8 µM): 0.826 | relative viability (NCI-H2228; first compound 2.53 µM): 0.592 | relative viability (NCI-H2228; first compound 8 µM): 0.63 | relative viability (NCI-H2405; first compound 0.08 µM): 0.878 | relative viability (NCI-H2405; first compound 0.253 µM): 0.924 | relative viability (NCI-H2405; first compound 0.8 µM): 0.85 | relative viability (NCI-H2405; first compound 2.53 µM): 0.822 | relative viability (NCI-H2405; first compound 8 µM): 0.768 | relative viability (NCI-H322M; first compound 0.08 µM): 0.868 | relative viability (NCI-H322M; first compound 0.253 µM): 1.04 | relative viability (NCI-H322M; first compound 0.8 µM): 0.866 | relative viability (NCI-H322M; first compound 2.53 µM): 0.928 | relative viability (NCI-H322M; first compound 8 µM): 0.839 | relative viability (NCI-H520; first compound 0.08 µM): 0.897 | relative viability (NCI-H520; first compound 0.253 µM): 1.06 | relative viability (NCI-H520; first compound 0.8 µM): 1.15 | relative viability (NCI-H520; first compound 2.53 µM): 0.972 | relative viability (NCI-H520; first compound 8 µM): 1.02 | relative viability (NCI-H661; first compound 0.08 µM): 0.507 | relative viability (NCI-H661; first compound 0.253 µM): 0.473 | relative viability (NCI-H661; first compound 0.8 µM): 0.55 | relative viability (NCI-H661; first compound 2.53 µM): 0.527 | relative viability (NCI-H661; first compound 8 µM): 0.591 | relative viability (PC-14; first compound 0.08 µM): 1.02 | relative viability (PC-14; first compound 0.253 µM): 1.07 | relative viability (PC-14; first compound 0.8 µM): 0.966 | relative viability (PC-14; first compound 2.53 µM): 0.92 | relative viability (PC-14; first compound 8 µM): 0.948 | relative viability (PC-3 [JPC-3]; first compound 0.08 µM): 1.02 | relative viability (PC-3 [JPC-3]; first compound 0.253 µM): 1.03 | relative viability (PC-3 [JPC-3]; first compound 0.8 µM): 0.992 | relative viability (PC-3 [JPC-3]; first compound 2.53 µM): 0.972 | relative viability (PC-3 [JPC-3]; first compound 8 µM): 0.91 | relative viability (RERF-LC-KJ; first compound 0.08 µM): 0.865 | relative viability (RERF-LC-KJ; first compound 0.253 µM): 0.939 | relative viability (RERF-LC-KJ; first compound 0.8 µM): 0.85 | relative viability (RERF-LC-KJ; first compound 2.53 µM): 1.01 | relative viability (RERF-LC-KJ; first compound 8 µM): 0.763
